Laboratory results from BindingDB's records for doi:10.7270/Q20P0XHD (Burnham Center For Chemical Genomics, 2011).
pIC50: −log10 of the molar value.

Target: T1, C-C chemokine receptor type 6 (Homo sapiens, UniProt P51684)
T1 sequence (P51684 whole entry): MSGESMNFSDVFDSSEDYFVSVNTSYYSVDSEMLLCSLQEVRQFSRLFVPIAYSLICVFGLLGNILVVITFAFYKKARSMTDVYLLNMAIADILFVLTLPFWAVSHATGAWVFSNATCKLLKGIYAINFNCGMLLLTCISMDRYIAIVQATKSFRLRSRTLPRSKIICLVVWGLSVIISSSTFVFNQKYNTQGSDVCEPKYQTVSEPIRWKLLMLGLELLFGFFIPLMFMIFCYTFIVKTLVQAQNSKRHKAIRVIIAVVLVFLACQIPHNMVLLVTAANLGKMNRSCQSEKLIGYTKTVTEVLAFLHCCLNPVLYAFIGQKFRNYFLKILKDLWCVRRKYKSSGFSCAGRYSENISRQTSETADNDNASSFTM
Assay: CCR6 receptor antagonists, dose response, cell-based, luminescent beta-arrestin readout (AID 504728)

| Structure (SMILES) | pIC50 |
| --- | --- |
| CC(NO)C(=O)C(=CN1CCCCC1)CN1CCCCC1 (centres undefined) | < 4.18 |
| Cc1cc(C)nc(NNC=C2C(=O)CC(c3ccc(F)cc3)CC2=O)n1 (centres undefined) | < 4.18 |
| O=C1Nc2ccc([N+](=O)[O-])cc2/C1=N/NC(=O)c1cc(-c2ccccc2Cl)nc2ccccc12 [2-(2-chlorophenyl)-N'-(2-keto-5-nitro-indol-3-yl)cinchoninohydrazide] | < 4.18 |
| COC1=CC=CC(CN=Nc2nc(Nc3ccc([N+](=O)[O-])cc3)nc(N3CCCC3)n2)C1=O (centres undefined) [2-hydroxy-3-methoxybenzaldehyde {4-[(4-nitrophenyl)amino]-6-pyrrolidin-1-yl-1,3,5-triazin-2-yl}hydrazone] | 5.79 |
| O=Nc1c(C2C(=O)Nc3cc(Br)ccc32)[nH]c2ccccc12 (centres undefined) [6-bromoindirubin-3-oxime] | < 4.18 |
| O=C1C([N+](=O)[O-])=CC=CC1CN=Nc1ccc2ccccc2n1 (centres undefined) [(6E)-2-nitro-6-[(2-quinolin-2-ylhydrazinyl)methylidene]cyclohexa-2,4-dien-1-one] | < 4.18 |
| COc1cccc(CN=Nc2nc(Nc3ccccc3)nc(-n3nc(C)cc3C)n2)c1O [(6E)-6-[[2-[4-(3,5-dimethylpyrazol-1-yl)-6-phenylazanyl-1,3,5-triazin-2-yl]hydrazinyl]methylidene]-2-methoxy-cyclohexa-2,4-dien-1-one] | < 4.18 |
| CN(C)c1nc(N=NCc2ccccc2O)nc(Nc2ccc(F)cc2)n1 [(6E)-6-[[2-[4-(dimethylamino)-6-(4-fluoroanilino)-1,3,5-triazin-2-yl]hydrazinyl]methylidene]cyclohexa-2,4-dien-1-one] | < 4.18 |
| O=C1C([N+](=O)[O-])=CC(Cl)=CC1CN=Nc1ccccn1 (centres undefined) [MLS000539830] | < 4.18 |
| O=C1C=CC([N+](=O)[O-])=CC1CN=Nc1ccccn1 (centres undefined) [MLS000585015] | < 4.18 |
| C/C=C(\C)C(=O)OC1[C@H](OC(C)=O)C2(CO)C(CC1(C)C)C1=CCC3C4(C)CCC(O[C@@H]5O[C@H](C(=O)O)[C@@H](O[C@@H]6O[C@H](CO)[C@@H](O)[C@H](O)[C@H]6O)[C@H](O)[C@H]5O[C@H]5O[C@H](CO)[C@@H](O)[C@H](O)[C@H]5O)[C@](C)(CO)C4CCC3(C)[C@]1(C)C[C@H]2O (some centres undefined) [MLS002695979] | 4.79 |
| C=CCSC(N)=NN=CC1C=C(Br)C=C([N+](=O)[O-])C1=O (centres undefined) [N''-[[(E)-(3-bromo-5-nitro-6-oxo-1-cyclohexa-2,4-dienylidene)methyl]amino]carbamimidothioic acid prop-2-enyl ester] | < 4.18 |
| O=C1C(/C=N/c2ccc(N3CCOCC3)cc2)=CC(Cc2ccccc2)C=C1[N+](=O)[O-] (centres undefined) [SMR000231104] | < 4.18 |
| CCCC1CCC(=NNC(=S)NCCc2ccccc2)CC1 (centres undefined) [SMR000347544] | < 4.18 |
| CC(C)(C)C1CCC(=NNC(=S)NCc2ccccc2)CC1 (centres undefined) [SMR000377499] | < 4.18 |
| COc1ccc(-n2c(O)c(CN=Nc3nc(C)cc(C)n3)c3ccccc3c2=O)cc1OC [SMR000385482] | 6.23 |
| Cc1cc(N=NCc2ccc(F)cc2)nc(-n2nc(C)cc2C)n1 [SMR000426945] | < 4.18 |
| CN1C(=O)C(C2CC(c3ccc(Cl)cc3)N=N2)C(=O)N(C)C1=O (centres undefined) [SMR000439471] | 4.83 |
| N#CC(=C1C=CC(N=O)C(Cl)=C1)c1ccc(Cl)cc1 (centres undefined) [SMR001570423] | < 4.18 |
